# Data: PMC4272272 (PLoS ONE, 2014)
# Where two headings read alike, the source gives them in different places.
# How the values were obtained:
# [1] = tested on: albumin and α-acidic glycoprotein; conditions: plasma protein binding; cited from earlier work
# Text: Insulin treatment remains the main therapy for the control of hyperglycemia in diabetic patients with ESRD requiring hemodialysis, but it sometimes induces severe hypoglycemia.
# [2] = Safety assessment (adverse events, physical examination, vital signs) after liraglutide; type: in vivo, human; conditions: off-hemodialysis (day 2) or on-hemodialysis (day 3); 0.6 or 0.9 mg s.c.; 10 patients
# Procedure: The severity and causal relationship to liraglutide of all treatment-related adverse events in these patients were assessed by the investigators. A physical examination, including vital signs (blood pressure and heart rate) and clinical laboratory biochemical tests, was also performed on each patient.
# plasma glucose = conditions: CGM, mean ± SD, n = 10
# Procedure: CGM was performed both off-hemodialysis (day 2) and on-hemodialysis (day 3).
# The mean, maximum, and minimum glucose concentrations; SD; and MAGE were analyzed using a paired t-test and 95% confidence interval (CI) for the mean ratio (on-hemodialysis/off-hemodialysis). Because these values could be logarithmically transformed, the transformed data were used for analyses. […] In these cases, the original non-transformed values were analyzed by paired t-test. […] Values of p<0.05 were considered significant.
# [3] = cited from earlier work; for Liraglutide AUC lower than in healthy subjects, on average: single dose, ref 1 (Jacobsen et al., 2009) of supplement
# [4] = parameters: method as in earlier work; conditions: ref 2 (Ishida et al., 2011) of supplement, cited from earlier work
# [5] = parameters: method as in PMID 23445717; conditions: cited from earlier work
# [6] = human, in vivo; cited from earlier work
compound,measurement,setting,value
CCCCCCCCCCCCCCCC(=O)N[C@@H](CCC(=O)NCCCC[C@H](NC(=O)[C@H](C)NC(=O)[C@H](C)NC(=O)[C@H](CCC(N)=O)NC(=O)CNC(=O)[C@H](CCC(=O)O)NC(=O)[C@H](CC(C)C)NC(=O)[C@H](Cc1ccc(O)cc1)NC(=O)[C@H](CO)NC(=O)[C@H](CO)NC(=O)[C@@H](NC(=O)[C@H](CC(=O)O)NC(=O)[C@H](CO)NC(=O)[C@@H](NC(=O)[C@H](Cc1ccccc1)NC(=O)[C@@H](NC(=O)CNC(=O)[C@H](CCC(=O)O)NC(=O)[C@H](C)NC(=O)[C@@H](N)Cc1cnc[nH]1)[C@@H](C)O)[C@@H](C)O)C(C)C)C(=O)N[C@@H](CCC(=O)O)C(=O)N[C@@H](Cc1ccccc1)C(=O)N[C@H](C(=O)N[C@@H](C)C(=O)N[C@@H](Cc1c[nH]c2ccccc12)C(=O)N[C@@H](CC(C)C)C(=O)N[C@H](C(=O)N[C@@H](CCCNC(=N)N)C(=O)NCC(=O)N[C@@H](CCCNC(=N)N)C(=O)NCC(=O)O)C(C)C)[C@@H](C)CC)C(=O)O [liraglutide],Liraglutide binding to albumin and α-acidic glycoprotein,[1],approximately 99%
same,"Adverse events, including signs of hypoglycemia",[2],No adverse events
same,AUC during 24 hr in hyperglycemia (>180 mg/dL),plasma glucose; off-hemodialysis (day 2),7746.0 ± 17246.4 mg·min/dL
same,MAGE (mean amplitude of glycemic excursions),plasma glucose; off-hemodialysis (day 2),55.6 ± 27.4 mg/dL
same,Minimum glucose level,plasma glucose; off-hemodialysis (day 2),92.7 ± 27.1 mg/dL
same,Time during 24 hr in hyperglycemia (>180 mg/dL),plasma glucose; off-hemodialysis (day 2),214.5 ± 388.4 min
same,AUC during 24 hr in hyperglycemia (>180 mg/dL),plasma glucose; on-hemodialysis (day 3),11427.5 ± 19184.4 mg·min/dL
same,MAGE (mean amplitude of glycemic excursions),plasma glucose; on-hemodialysis (day 3),90.0 ± 65.7 mg/dL
same,Minimum glucose level,plasma glucose; on-hemodialysis (day 3),88.4 ± 21.4 mg/dL
same,Time during 24 hr in hyperglycemia (>180 mg/dL),plasma glucose; on-hemodialysis (day 3),210.0 ± 282.9 min
same,"Liraglutide AUC lower than in healthy subjects, on average",[3]; end-stage renal disease,26%
same,"Liraglutide AUC lower than in healthy subjects, on average",[3]; mild renal impairment,33%
same,"Liraglutide AUC lower than in healthy subjects, on average",[3]; moderate renal impairment,14%
same,"Liraglutide AUC lower than in healthy subjects, on average",[3]; severe renal impairment,27%
same,Adverse events,"[3]; single injection 0.75 mg, non-diabetic Caucasian patients with varying degrees of renal impairment",2 events of vomiting and 1 event of nausea
same,Patients withdrawn from liraglutide treatment due to nausea,[4]; 19 patients switched from insulin,Two patients
same,Hypoglycemia symptoms after the switch to liraglutide,[4]; 30% of the subjects complained before the switch,not observed
same,Glycosylated haemoglobin 1c (HbA1c) after one month of liraglutide,"[4]; from 5.3±0.5 before the switch from insulin, p= 0.07, 19 patients",5.1±0.5
same,Glycoalbumin (GA) after one-month treatment of liraglutide,"[4]; from 21.0±2.2 before the switch from insulin, p= 0.02, 19 patients",19.4±2.4%
same,Adverse events,"[5]; 0.3 mg/day, nine diabetic Japanese patients with ESRD",no adverse events
same,Mean period of hypoglycemia after liraglutide administration,"[5]; 0.3 mg, diabetic patients with ESRD undergoing hemodialysis",approximately 50 min/day
exenatide,AUC0–∞ in non-diabetic patients with ESRD relative to healthy controls,[6],3.37 times
same,Cmax in non-diabetic patients with ESRD relative to healthy controls,[6],1.38 times
